Measurements taken from patent publication US9957264B2 (Merck Sharp & Dohme Corp., priority 2013, dated 2018).

Legend:
[1] = biological target: JAK2 (recombinant purified GST-tagged catalytic domain) (Homo sapiens (Human), UniProt O60674); test: Jak Biochemical HTRF Assay (JAK2); conditions: [ATP] 8.5 μM
Method: (§1) Jak Biochemical HTRF Assay Protocol
The ability of compounds to inhibit the activity of JAK1, JAK2, JAK3, and Tyk2 was measured using a recombinant purified GST-tagged catalytic domain for each enzyme (Invitrogen JAK1 #M4290, JAK2 #M4290, JAK3 #M4290, Tyk2 #M4290) in an HTRF format biochemical assay. […] The basic assay protocol is as follows: First, 250 nL of diluted compounds in DMSO were dispensed into the wells of a dry 384-well Black plate (Greiner #781076) using a Labcyte Echo 555 acoustic dispenser. Subsequent reagent additions employed an Agilent Bravo. […] After equilibration, 2 μL of 10×ATP in 1× assay buffer was added to initiate the kinase reaction and the plates were shaken and then incubated at room temperature for 120 minutes. […] Plates were shaken and centrifuged and then incubated 60 minutes at room temperature and then read on a Perkin Elmer Envision (λex=337 nm, λem=665 and 615 nm, TRF delay time=20 μs). HTRF signal=10,000*665 nm reading/615 nm reading. After normalization to untreated controls, the percent inhibition of the HTRF signal at each compound concentration was calculated. The plot of percent inhibition versus the log of compound concentration was fit with a 4-parameter dose response equation to calculate IC50 values.
(§2) Final reaction conditions were:
Examples of the instant invention were evaluated in JAK1 and JAK2 in vitro binding assays as described above.

[2] = biological target: JAK1 (recombinant purified GST-tagged catalytic domain) (Homo sapiens (Human), UniProt P23458); test: Jak Biochemical HTRF Assay (JAK1); conditions: [ATP] 31.8 μM
JAK1 (recombinant purified GST-tagged catalytic domain), sequence (P23458 875-1153): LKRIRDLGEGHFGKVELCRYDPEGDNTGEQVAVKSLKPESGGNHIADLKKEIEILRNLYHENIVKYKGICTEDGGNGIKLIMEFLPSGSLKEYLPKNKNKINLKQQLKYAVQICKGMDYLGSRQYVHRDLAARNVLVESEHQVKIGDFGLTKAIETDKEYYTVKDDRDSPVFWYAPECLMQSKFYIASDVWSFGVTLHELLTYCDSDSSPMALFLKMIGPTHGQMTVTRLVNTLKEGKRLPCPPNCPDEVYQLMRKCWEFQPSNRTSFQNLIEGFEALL
Method: as §1
The ability of compounds to inhibit the activity of JAK1, JAK2, JAK3, and Tyk2 was measured using a recombinant purified GST-tagged catalytic domain for each enzyme (Invitrogen JAK1 #M4290, JAK2 #M4290, JAK3 #M4290, Tyk2 #M4290) in an HTRF format biochemical assay. The reactions employed a common peptide substrate, LCB-[…]-NH2 (in-house). The basic assay protocol is as follows: First, 250 nL of diluted compounds in DMSO were dispensed into the wells of a dry 384-well Black plate (Greiner #781076) using a Labcyte Echo 555 acoustic dispenser. Subsequent reagent additions employed an Agilent Bravo. […] After equilibration, 2 μL of 10×ATP in 1× assay buffer was added to initiate the kinase reaction and the plates were shaken and then incubated at room temperature for 120 minutes. At the end of the incubation, 20 μL of 2× stop buffer (streptavidin-Dylight 650 (Thermo #84547B/100 mL), Eu-tagged pY20 antibody (Perkin Elmer #AD0067), EDTA, HEPES, and Triton) was added to quench the reaction. Plates were shaken and centrifuged and then incubated 60 minutes at room temperature and then read on a Perkin Elmer Envision (λex=337 nm, λem=665 and 615 nm, TRF delay time=20 μs). HTRF signal=10,000*665 nm reading/615 nm reading. After normalization to untreated controls, the percent inhibition of the HTRF signal at each compound concentration was calculated. The plot of percent inhibition versus the log of compound concentration was fit with a 4-parameter dose response equation to calculate IC50 values.
as §2
Examples of the instant invention were evaluated in JAK1 and JAK2 in vitro binding assays as described above. The following table tabulates the JAK1 IC50 values and JAK2 IC50 values disclosed for the instant invention.

JAK2 (recombinant purified GST-tagged catalytic domain), sequence (O60674 849-1124): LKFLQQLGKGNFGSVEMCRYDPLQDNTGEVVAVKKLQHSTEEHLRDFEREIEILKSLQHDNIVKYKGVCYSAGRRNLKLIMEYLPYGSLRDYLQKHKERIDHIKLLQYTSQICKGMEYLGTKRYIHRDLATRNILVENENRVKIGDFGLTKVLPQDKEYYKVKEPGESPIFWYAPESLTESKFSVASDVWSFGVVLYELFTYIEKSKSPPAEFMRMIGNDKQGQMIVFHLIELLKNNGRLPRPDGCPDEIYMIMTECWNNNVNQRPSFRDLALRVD

Structure (SMILES) | IC50 [1] [nM] | IC50 [2] [nM]
N#CC[C@@]1(n2nc(Nc3cc(F)c4nccc(Cl)c4c3)c3c(=O)[nH]ccc32)CCOC1 (single isomer, unassigned) [Example 5-243, [(3R or 3S)-3-{3-[(4-chloro-8-fluoroquinolin-6-yl)amino]-4-oxo-4,5-dihydro-1H-pyrazolo[4,3-c]pyridin-1-yl}tetrahydrofuran-3-yl]acetonitrile] | 100 | 6.62
Cc1cc(Nc2nn([C@@]3(CC#N)CCCC[C@H]3F)c3cc[nH]c(=O)c23)ccc1C(=O)N1CCC(F)(F)CC1 [Example 5-153, 2-((1R,2R)-1-(3-((4-(4,4-difluoropiperidine-1-carbonyl)-3-methylphenyl)amino)-4-oxo-4,5-dihydro-1H-pyrazolo[4,3-c]pyridin-1-yl)-2-fluorocyclohexyl) acetonitrile] | 0.08 | 0.09
CN(C)S(=O)(=O)c1ccc(Nc2nn(C3(CC#N)CCCCC3)c3cc[nH]c(=O)c23)cc1 [Example 5-79, 4-(1-(1-(cyanomethyl)cyclohexyl)-4-oxo-4,5-dihydro-1H-pyrazolo[4,3-c]pyridin-3-ylamino)-N,N-dimethylbenzene-sulfonamide] |  | 0.78
C[C@H]1CN(C(=O)OC(C)(C)C)CC[C@]1(CC#N)n1nc(Nc2ccc(S(C)(=O)=O)cc2)c2c(=O)[nH]ccc21 (racemic) [Example 5-10, tert-butyl (3R,4S and 3S,4R)-4-(cyanomethyl)-3-methyl-4-(3-{[4-(methylsulfonyl)phenyl]amino}-4-oxo-4,5-dihydro-1H-pyrazolo[4,3-c]pyridin-1-yl)piperidine-1-carboxylate] |  | 0.23
CC(C)(C)N1Cc2cc(Nc3nn([C@]4(CC#N)CCCOC4)c4cc[nH]c(=O)c34)ccc2S1(=O)=O [Example 5-178, [(3S)-3-{3-[(2-tert-butyl-1,1-dioxido-2,3-dihydro-1,2-benzisothiazol-5-yl)amino]-4-oxo-4,5-dihydro-1H-pyrazolo[4,3-c]pyridin-1-yl}tetrahydro-2H-pyran-3-yl] acetonitrile] |  | 0.04
CN(C)S(=O)(=O)c1ccc(Nc2nn([C@@]3(CC#N)CCCC[C@H]3F)c3cc[nH]c(=O)c23)cc1 [Example 5-234, 4-({1-[(1R,2R)-1-(cyanomethyl)-2-fluorocyclohexyl]-4-oxo-4,5-dihydro-1H-pyrazolo [4,3-c]pyridin-3-yl}amino)-N,N-dimethyl-benzenesulfonamide] |  | 0.63
N#CC[C@]1(n2nc(Nc3ccc4c(c3)CN(C3CCNCC3)S4(=O)=O)c3c(=O)[nH]ccc32)CCOC[C@H]1F (single isomer, unassigned) [Example 5-271, 2-[(3S,4S or 3R,4R)-4-(3-{[1,1-dioxo-2-(piperidin-4-yl)-3H-1,2-benzothiazol-5-yl]amino}-4-oxo-5H-pyrazolo[4,3-c]pyridin-1-yl)-3-fluorooxan-4-yl]acetonitrile] |  | 0.25

The remaining lines, values ahead:

IC50 [1] [nM] | IC50 [2] [nM] | Structure (SMILES)
0.83 | 0.65 | Cc1cc(Nc2nn([C@]3(CC#N)CCCOC3)c3cc[nH]c(=O)c23)ccc1C(=O)N1CCCC[C@H]1C [Example 20-3, 2-((S)-3-(3-((3-methyl-4-((R)-2-methylpiperidine-1-carbonyl)phenyl)amino)-4-oxo-4,5-dihydro-1H-pyrazolo[4,3-c]pyridin-1-yl)tetrahydro-2H-pyran-3-yl)acetonitrile]
0.31 | 0.08 | CN(C)S(=O)(=O)c1ccc(Nc2nn(C3(CC#N)CCN(C(=O)CC(F)(F)F)CC3)c3cc[nH]c(=O)c23)cc1 [Example 9-2, 4-({1-[4-(cyanomethyl)-1-(3,3,3-trifluoropropanoyl)piperidin-4-yl]-4-oxo-4,5-dihydro-1H-pyrazolo[4,3-c]pyridin-3-yl}amino)-N,N-dimethylbenzenesulfonamide]
0.39 | 0.14 | CN(C)S(=O)(=O)c1ccc(Nc2nn(C3(CC#N)CCN(C(=O)C4Cc5ccccc5C4)CC3)c3cc[nH]c(=O)c23)cc1 [Example 9-18, 4-({1-[4-(cyanomethyl)-1-(2,3-dihydro-1H-inden-2-ylcarbonyl)piperidin-4-yl]-4-oxo-4,5-dihydro-1H-pyrazolo[4,3-c]pyridin-3-yl}amino)-N,N-dimethylbenzenesulfonamide]
